Literature values in patent US11690524B2, “Assessment of iron deposition post myocardial infarction as a marker of myocardial hemorrhage” (Cedars-Sinai Medical Center, priority 2011, dated 2023).

Key:
[1] = qualitative statement
post MI patients = conditions: 6 months of therapy, TACT trial

half-life in plasma / plasma life [1]	Structure (SMILES)	effect on MACE (major adverse cardiovascular events) (post MI patients)
longer	Cc1c(O)c(=O)ccn1C [Deferiprone]	–
–	O=C(O)CN(CCN(CC(=O)O)CC(=O)O)CC(=O)O [EDTA]	did not decrease MACE
short	CC(=O)N(O)CCCCCNC(=O)CCC(=O)N(O)CCCCCNC(=O)CCC(=O)N(O)CCCCCN [deferoxamine]	–
